Test results from patent US9205068B2 (priority 2008, dated 2015).
Where “and” joins values, the source holds several entries; their conditions need not be identical. Equal values may be shown once.

What was measured:
[1] = molecular target: cell-binding B subunit of CT (Vibrio cholerae serotype O1, UniProt P01556)
[2] = tested on: CT; details: in vivo
[3] = molecular target: catalytic subunit of pertussis toxin (PTS1) (Bordetella pertussis, UniProt P04977); type: binding, B. pertussis; details: PTS1, 100 μM PBA
catalytic subunit of pertussis toxin (PTS1), sequence (P04977 35-269 limits assumed): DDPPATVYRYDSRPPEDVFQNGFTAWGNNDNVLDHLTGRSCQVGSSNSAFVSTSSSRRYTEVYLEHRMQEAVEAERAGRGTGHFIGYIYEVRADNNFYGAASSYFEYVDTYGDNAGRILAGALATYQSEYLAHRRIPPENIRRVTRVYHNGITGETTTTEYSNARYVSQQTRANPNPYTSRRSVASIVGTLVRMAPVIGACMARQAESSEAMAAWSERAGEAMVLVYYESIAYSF

[4] = tested on: CT intoxication of CHO cells; type: cell-based
[5] = in vivo, po; cited from earlier work
[6] = tested on: CTA1 dislocation from the ER to the cytosol of HeLa cells; type: cell-based
[7] = molecular target: catalytic A1 polypeptide of cholera toxin (CTA1) (Vibrio cholerae serotype O1, UniProt P01555); type: binding
catalytic A1 polypeptide of cholera toxin (CTA1), sequence (P01555 19-212 limits assumed): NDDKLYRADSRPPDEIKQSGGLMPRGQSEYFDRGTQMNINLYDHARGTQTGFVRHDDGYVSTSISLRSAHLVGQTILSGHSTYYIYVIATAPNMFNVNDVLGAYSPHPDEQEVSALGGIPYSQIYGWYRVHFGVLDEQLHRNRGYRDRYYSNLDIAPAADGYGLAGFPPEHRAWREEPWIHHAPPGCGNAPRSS

[8] = tested on: Shiga toxin; type: cell-based
[9] = cited from earlier work
[10] = tested on: 20S proteasome; type: biochemical
[11] = tested on: forskolin-stimulated adenylate cyclase activity; type: cell-based
[12] = molecular target: His6-tagged CTA1 (Vibrio cholerae serotype O1, UniProt P01555); type: binding
His6-tagged CTA1, sequence (P01555 19-212 limits assumed): as above

[13] = molecular target: thermolysin (Bacillus thermoproteolyticus, UniProt P00800); type: biochemical
thermolysin, sequence (P00800 233-548): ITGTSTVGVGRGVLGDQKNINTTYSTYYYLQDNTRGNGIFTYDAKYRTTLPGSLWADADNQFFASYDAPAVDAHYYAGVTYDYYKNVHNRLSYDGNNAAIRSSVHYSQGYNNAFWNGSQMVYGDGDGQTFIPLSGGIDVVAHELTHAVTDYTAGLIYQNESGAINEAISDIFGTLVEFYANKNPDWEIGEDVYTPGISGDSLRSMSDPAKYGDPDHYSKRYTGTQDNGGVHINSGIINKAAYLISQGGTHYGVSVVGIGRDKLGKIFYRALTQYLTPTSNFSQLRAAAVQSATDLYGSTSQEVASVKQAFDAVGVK

[14] = tested on: CTA1 secretion from intoxicated HeLa cells; type: cell-based
[15] = molecular target: interaction between GRP94 and CTA1 (Homo sapiens, UniProt P14625); type: binding
interaction between GRP94 and CTA1, sequence (P14625 22-803 limits assumed): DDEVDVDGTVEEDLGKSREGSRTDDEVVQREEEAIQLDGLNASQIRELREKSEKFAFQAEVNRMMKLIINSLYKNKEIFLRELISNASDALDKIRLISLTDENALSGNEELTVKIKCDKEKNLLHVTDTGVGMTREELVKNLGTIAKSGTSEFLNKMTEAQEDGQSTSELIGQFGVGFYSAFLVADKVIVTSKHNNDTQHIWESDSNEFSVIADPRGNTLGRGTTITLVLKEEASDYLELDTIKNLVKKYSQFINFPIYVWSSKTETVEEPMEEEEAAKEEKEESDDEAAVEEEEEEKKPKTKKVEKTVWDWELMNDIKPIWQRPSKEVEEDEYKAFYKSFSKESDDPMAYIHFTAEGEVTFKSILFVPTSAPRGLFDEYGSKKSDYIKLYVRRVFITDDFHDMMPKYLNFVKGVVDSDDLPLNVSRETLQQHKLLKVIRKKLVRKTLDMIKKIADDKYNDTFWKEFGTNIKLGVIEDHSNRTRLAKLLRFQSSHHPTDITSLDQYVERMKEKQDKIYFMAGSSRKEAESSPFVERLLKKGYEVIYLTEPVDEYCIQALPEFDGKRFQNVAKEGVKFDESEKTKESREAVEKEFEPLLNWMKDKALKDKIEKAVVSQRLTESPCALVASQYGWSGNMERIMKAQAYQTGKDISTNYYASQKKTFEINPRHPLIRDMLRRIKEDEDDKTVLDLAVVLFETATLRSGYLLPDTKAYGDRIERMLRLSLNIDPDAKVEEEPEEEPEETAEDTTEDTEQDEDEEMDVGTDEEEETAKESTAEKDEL

cell-binding B subunit of CT, sequence (P01556 22-124 limits assumed): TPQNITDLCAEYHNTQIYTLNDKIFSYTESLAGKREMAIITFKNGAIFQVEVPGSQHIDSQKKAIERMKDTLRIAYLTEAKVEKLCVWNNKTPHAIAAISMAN

O=C([O-])CCCc1ccccc1.[Na+] [PBA, sodium 4-phenylbutyrate]
binding to cell-binding B subunit of CT [1]: does not bind | CT activity in the ileal loop test system [2]: blocks CT activity in the ileal loop test system | transition temperature Far UV [3]: 33.0 °C | transition temperature Near UV [3]: 36.0 °C | CT activity against cultured cells [4]: blocks CT activity against cultured cells in a dose-dependent manner | concentration effective against CT intoxication of cultured cells [4]: 10 to 100 µM | PBA serum levels [5]: 600-1,700 uM | cytosolic pool of CTA1 by SPR [6]: less CTA1 was found in the cytosol | Melting temperature (Tm) Fluorescence [7]: 37.5 °C and 38.5 °C and 41.0 °C | Melting temperature (Tm) Near UV [7]: 33.0 °C and 35.0 °C | protection against Shiga toxin [8]: do not protect cultured cells against Shiga toxin

OCC(O)CO [glycerol]
t1/2 of equilibration across the plasma membrane [9]: 5 min | a-casein degradation by the 20S proteasome [10]: did not inhibit a-casein degradation by the 20S proteasome | CT concentration for 50% maximal response [4]: 35 ng of CT/ml | CT intoxication (cAMP response) [4]: resistant to CT | cytosolic pool of CTA1 by SPR [6]: failed to generate a positive cytosolic signal for CTA1 | cytosolic pool of CTA1 by SPR, time course [6]: could not be detected | reduction in cytosolic CTA1 [6]: 3 fold and 5 fold | total cellular pool of CTA1 present in the cytosolic fraction [6]: 7±4% | cAMP relative to cells treated with forskolin alone [11]: 105% | CTA1 secondary structure Tm [12]: 39±0.5 °C | CTA1 tertiary structure transition temperature (Tm) [12]: 39.5±1 °C | initial secondary structure retained at 37° C. [12]: ~60% | initial tertiary structure retained at 37° C. [12]: 58% | thermolysin-mediated proteolysis of a-casein [13]: did not prevent the thermolysin-mediated proteolysis of a-casein | CTA1 secreted into medium versus untreated cells [14]: twice as much CTA1 as the untreated control cells

N-ethylcarboxamidoadenosine [NECA]
effect on GRP94 binding to CTA1 [15]: blocked by both GA and NECA | CT intoxication (cAMP response) [4]: same response to CT as the untreated cells | cytosolic CTA1 by Western blot [6]: unaffected by NECA treatment | cytosolic pool of CTA1 by SPR [6]: response comparable to the response from cells intoxicated in the absence of drug treatment

brefeldin A [BfA]
cytosolic pool of CTA1 by SPR [6]: No signal | CTA1 in the medium by SPR [14]: could not detect an appreciable amount of CTA1 in the medium
